From patent publication US20250206724A1, “SUBSTITUTED 3-AMINO INDAZOLE DERIVATIVES AS KINASE INHIBITORS” (NERVIANO MEDICAL SCIENCES S.R.L., priority 2022, published 2025)
Where a name gives a salt, the structure may show the parent alone.

molecular target: T1, CDK11A (Homo sapiens, UniProt Q9UQ88); conditions: displacement of SNS-032-Atto590 probe (0.002 μM) from CDK11A-p58 (0.032 uM), fluorescence polarization
T1 sequence (Q9UQ88 346-783): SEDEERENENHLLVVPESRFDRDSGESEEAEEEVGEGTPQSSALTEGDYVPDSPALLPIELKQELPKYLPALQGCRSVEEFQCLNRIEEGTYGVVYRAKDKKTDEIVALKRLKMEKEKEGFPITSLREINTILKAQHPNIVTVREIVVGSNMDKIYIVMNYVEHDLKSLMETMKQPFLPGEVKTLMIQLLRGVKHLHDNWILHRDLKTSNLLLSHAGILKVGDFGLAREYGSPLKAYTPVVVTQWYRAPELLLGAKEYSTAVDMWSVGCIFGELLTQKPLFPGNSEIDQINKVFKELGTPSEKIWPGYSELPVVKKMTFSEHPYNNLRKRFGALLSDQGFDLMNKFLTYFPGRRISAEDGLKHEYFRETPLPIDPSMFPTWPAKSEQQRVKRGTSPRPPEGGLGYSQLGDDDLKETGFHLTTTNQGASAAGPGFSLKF
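Further: compound preincubated 30 min with CDK11A-p58, then probe added and polarization (mP) read 15 min later, 0% displacement is probe plus enzyme, 100% is probe alone.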
Experimental: Biochemical Kinase Inhibition Assay on CDK11 in Displacement Assay Format
Displacement Assay Format
Fluorescence Polarization (FP) experiments were carried out at room temperature using no-binding black 384-well microplates (Corning, NY), in 50 mM Tris HCl, pH 8, 10 mM MgCl2, 1 mM DTT, 1 mM CHAPS in a final volume of 60 μl. The plate reader was the Pherastar microplate reader (BMG). Polarization values were read using excitation and emission wavelengths of 590 and 675 nm, respectively. All FP values are expressed as mP units.
Compounds were 4-folds serially diluted in 100% DMSO and added directly to the CDK11A-p58 solution using the pin tool (V & P Scientific): 0.2 ul of the different compound concentrations in 20 ul of enzyme solution. After an incubation of 30 minutes at r.t., 40 ul of probe solution were added. […] The Pherastar reading is performed after 15 minutes of all components incubation. For each assay, high controls (equivalent to 0% displacement) contain probe, CDK11A-p58, and 0.33% DMSO, whereas low controls (equivalent to 100% displacement) contain only probe and 0.33% DMSO. Controls are used for the Z′ and signal to background evaluation.
The data per each molecule are analyzed by Prism SW or an internally customized version of the SW package “Assay Explorer” which provides sigmoidal fittings of the ten-dilution curves for DC50 determination using a 4 parameters logistic equation:
where x is the logarithm of the inhibitor concentration, y is the response; y starts at bottom and goes to top with a sigmoid shape.

| Structure (SMILES) | DC50 [nM] |
| --- | --- |
| O=C1CCC(C(=O)Nc2n[nH]c3ccc(-c4c(Cl)cccc4Cl)cc23)CN1 (centres unmarked) [cpd 27, N-[5-(2,6-Dichlorophenyl)-1H-indazol-3-yl]-6-oxopiperidine-3-carboxamide] | 338 |
| COC(=O)c1ccc(Cl)c(-c2ccc3[nH]nc(NC(=O)[C@@H]4CCCNC4)c3c2)c1 [cpd 29, Methyl 4-chloro-3-(3-{[(3R)-piperidin-3-ylcarbonyl]amino}-1H-indazol-5-yl)benzoate hydrochloride] | 24 |
| CNC(=O)c1ccc(Cl)c(-c2ccc3[nH]nc(NC(=O)[C@@H]4CCNC4)c3c2)c1 [cpd 39, (3R)-N-{5-[2-Chloro-5-(methylcarbamoyl)phenyl]-1H-indazol-3-yl}pyrrolidine-3-carboxamide hydrochloride] | 44 |
| O=C(Nc1n[nH]c2ccc(-c3ccccc3Cl)cc12)[C@@H]1CCCNC1 [cpd 47, (3R)-N-[5-(2-Chlorophenyl)-1H-indazol-3-yl]piperidine-3-carboxamide hydrochloride] | 38 |
| O=C(C[C@@H]1CCCN1)Nc1n[nH]c2ccc(-c3c(Cl)cccc3Cl)cc12 [compound 162, N-[5-(2,6-Dichlorophenyl)-1H-indazol-3-yl]-2-[(2S)-pyrrolidin-2-yl]acetamide hydrochloride] | 792 |
| O=C(Nc1n[nH]c2ccc(-c3c(F)cccc3Cl)cc12)[C@H]1CCCNC1 [compound 173, (3S)-N-[5-(2-Chloro-6-fluorophenyl)-1H-indazol-3-yl]piperidine-3-carboxamide hydrochloride] | 391 |
| C[C@H]1CC[C@@H](C(=O)Nc2n[nH]c3ccc(-c4c(Cl)cccc4Cl)cc23)CN1 [compound 177, (3R,6S)-N-[5-(2,6-Dichlorophenyl)-1H-indazol-3-yl]-6-methylpiperidine-3-carboxamide trifluoroacetate] | 54 |
| COc1ccc(Cl)c(-c2ccc3[nH]nc(NC(=O)C4CCCNC4)c3c2)c1 (centres unmarked) [cpd 17, N-[5-(2-Chloro-5-methoxyphenyl)-1H-indazol-3-yl]piperidine-3-carboxamide hydrochloride] | 52 |
| O=C(Nc1n[nH]c2ccc(-c3c(Cl)cccc3Cl)cc12)C1CCN(C2CC2)CC1 [compound 158, 1-Cyclopropyl-N-[5-(2,6-dichlorophenyl)-1H-indazol-3-yl]piperidine-4-carboxamide hydrochloride] | 695 |
| O=C(Nc1n[nH]c2ccc(-c3ccc(Cl)cc3C(F)(F)F)cc12)[C@@H]1CCCNC1 [cpd 45, (3R)-N-{5-[4-Chloro-2-(trifluoromethyl)phenyl]-1H-indazol-3-yl}piperidine-3-carboxamide hydrochloride] | 88 |
| O=C(CC1CCNCC1)Nc1n[nH]c2ccc(-c3c(Cl)cccc3Cl)cc12 [compound 163, N-[5-(2,6-Dichlorophenyl)-1H-indazol-3-yl]-2-(piperidin-4-yl)acetamide hydrochloride] | 576 |
| COC(=O)c1ccc(Cl)c(-c2ccc3[nH]nc(NC(=O)[C@@H]4CCNC4)c3c2)c1 [cpd 37, Methyl 4-chloro-3-(3-{[(3R)-pyrrolidin-3-ylcarbonyl]amino}-1H-indazol-5-yl)benzoate hydrochloride] | 26 |
| N#Cc1ccc(Cl)c(-c2ccc3[nH]nc(NC(=O)C4CC(NC5CCC5)C4)c3c2)c1 (centres unmarked) [compound 153, N-[5-(2-Chloro-5-cyanophenyl)-1H-indazol-3-yl]-3-(cyclobutylamino)cyclobutanecarboxamide hydrochloride] | 41 |
| N#Cc1ccc(Cl)c(-c2ccc3[nH]nc(NC(=O)[C@H]4CCCNC4)c3c2)c1 [compound 181, (3S)-N-[5-(2-Chloro-5-cyanophenyl)-1H-indazol-3-yl]piperidine-3-carboxamide hydrochloride] | 64 |
| O=C(Nc1n[nH]c2ccc(-c3c(Cl)cccc3Cl)cc12)[C@H]1CCCNC1 [compound 170, (3S)-N-[5-(2,6-Dichlorophenyl)-1H-indazol-3-yl]piperidine-3-carboxamide hydrochloride] | 177 |
| CC(C)(C)C(=O)OCOC(=O)N1CCC[C@@H](C(=O)Nc2n[nH]c3ccc(-c4cc(C#N)ccc4Cl)cc23)C1 [compound 193, [(2,2-Dimethylpropanoyl)oxy]methyl (3R)-3-{[5-(2-chloro-5-cyanophenyl)-1H-indazol-3-yl]carbamoyl}-piperidine-1-carboxylate] | 340 |
| O=C(Nc1n[nH]c2ccc(-c3c(Cl)cccc3Cl)cc12)[C@H]1CCNC1 [compound 168, (3S)-N-[5-(2,6-Dichlorophenyl)-1H-indazol-3-yl]pyrrolidine-3-carboxamide hydrochloride] | 98 |
| CN1CCC(C(=O)Nc2n[nH]c3ccc(-c4cc(F)c(F)cc4F)cc23)CC1 [compound 126, 1-Methyl-N-[5-(2,4,5-trifluorophenyl)-1H-indazol-3-yl]piperidine-4-carboxamide hydrochloride] | 913 |
| CC(C)C(OC(=O)N1CCC[C@@H](C(=O)Nc2n[nH]c3ccc(-c4cc(C#N)ccc4Cl)cc23)C1)OC(=O)C(C)(C)C (stereo partly drawn) [compound 197, 1-[(2,2-Dimethylpropanoyl)oxy]-2-methylpropyl (3R)-3-{[5-(2-chloro-5-cyanophenyl)-1H-indazol-3-yl]carbamoyl}piperidine-1-carboxylate] | 900 |

Continued, values first:

| DC50 [nM] | Structure (SMILES) |
| --- | --- |
| 122 | CCCCN1CCC(C(=O)Nc2n[nH]c3ccc(-c4c(Cl)cccc4Cl)cc23)CC1 [cpd 69, 1-Butyl-N-[5-(2,6-dichlorophenyl)-1H-indazol-3-yl]piperidine-4-carboxamide] |
| 200 | CN1CCC(C(=O)Nc2n[nH]c3ccc(-c4ccc(N)cc4Cl)cc23)CC1 [cpd 107, N-[5-(4-Amino-2-chlorophenyl)-1H-indazol-3-yl]-1-methylpiperidine-4-carboxamide dihydrochloride] |
| 821 | CC(C)(C)COC(=O)n1nc(NC(=O)[C@@H]2CCCNC2)c2cc(-c3cc(C#N)ccc3Cl)ccc21 [cpd 212, 2,2-Dimethylpropyl 5-(2-chloro-5-cyanophenyl)-3-{[(3R)-piperidin-3-ylcarbonyl]amino}-1H-indazole-1-carboxylate hydrochloride] |
| 102 | COC(=O)c1cc(-c2ccc3[nH]nc(NC(=O)[C@@H]4CCNC4)c3c2)c(Cl)cc1N [cpd 54, Methyl 2-amino-4-chloro-5-(3-{[(3R)-pyrrolidin-3-ylcarbonyl]amino}-1H-indazol-5-yl)benzoate dihydrochloride] |
| 967 | CN1CCC(C(=O)Nc2n[nH]c3ccc(-c4ccc(C(N)=O)cc4)cc23)CC1 [cpd 109, N-[5-(4-Carbamoylphenyl)-1H-indazol-3-yl]-1-methylpiperidine-4-carboxamide hydrochloride] |
| 57 | O=C(Nc1n[nH]c2ccc(-c3cc(-c4nnco4)ccc3Cl)cc12)[C@@H]1CCCNC1 [cpd 59, (3R)-N-{5-[2-Chloro-5-(1,3,4-oxadiazol-2-yl)phenyl]-1H-indazol-3-yl}piperidine-3-carboxamide trifluoroacetate] |
| 58 | NCCCN1CCC(C(=O)Nc2n[nH]c3ccc(-c4c(F)cccc4Cl)cc23)CC1 [cpd 66, 1-(3-Aminopropyl)-N-[5-(2-chloro-6-fluorophenyl)-1H-indazol-3-yl]piperidine-4-carboxamide dihydrochloride] |
| 393 | CN1CCC(C(=O)Nc2n[nH]c3ccc(-c4ccccc4Cl)cc23)CC1 [cpd 85, N-[5-(2-Chlorophenyl)-1H-indazol-3-yl]-1-methylpiperidine-4-carboxamide hydrochloride] |
| 277 | CN1CCC(C(=O)Nc2n[nH]c3ccc(-c4ccccc4C#N)cc23)CC1 [cpd 79, N-[5-(2-Cyanophenyl)-1H-indazol-3-yl]-1-methylpiperidine-4-carboxamide p-toluensulfonate] |
| 665 | Cc1ccc(-c2ccc3[nH]nc(NC(=O)C4CCN(C)CC4)c3c2)c(F)c1 [cpd 119, N-[5-(2-Fluoro-4-methylphenyl)-1H-indazol-3-yl]-1-methylpiperidine-4-carboxamide hydrochloride] |
| 643 | CN1CCC(C(=O)Nc2n[nH]c3ccc(-c4cccc(Cl)c4Cl)cc23)CC1 [cpd 97, N-[5-(2,3-Dichlorophenyl)-1H-indazol-3-yl]-1-methylpiperidine-4-carboxamide hydrochloride] |
| 330 | CN1CCC(C(=O)Nc2n[nH]c3ccc(-c4ccccc4C(F)(F)F)cc23)CC1 [cpd 104, 1-Methyl-N-{5-[2-(trifluoromethyl)phenyl]-1H-indazol-3-yl}piperidine-4-carboxamide hydrochloride] |
| 153 | CN1CCC(C(=O)Nc2n[nH]c3ccc(-c4cc(C(N)=O)ccc4Cl)cc23)CC1 [cpd 117, N-[5-(5-Carbamoyl-2-chlorophenyl)-1H-indazol-3-yl]-1-methylpiperidine-4-carboxamide trifluoroacetate] |
| 799 | CN1CCC(C(=O)Nc2n[nH]c3ccc(-c4ccc(S(N)(=O)=O)cc4)cc23)CC1 [cpd 92, 1-Methyl-N-[5-(4-sulfamoylphenyl)-1H-indazol-3-yl]piperidine-4-carboxamide hydrochloride] |
| 534 | Cc1cc(C#N)ccc1-c1ccc2[nH]nc(NC(=O)C3CCN(C)CC3)c2c1 [cpd 113, N-[5-(4-Cyano-2-methylphenyl)-1H-indazol-3-yl]-1-methylpiperidine-4-carboxamide hydrochloride] |
| 141 | CN1CCC(C(=O)Nc2n[nH]c3ccc(-c4ccc(O)cc4Cl)cc23)CC1 [cpd 111, N-[5-(2-Chloro-4-hydroxyphenyl)-1H-indazol-3-yl]-1-methylpiperidine-4-carboxamide hydrochloride] |
